Test results published in patent US10214507B2, “Carbazole-containing amides, carbamates, and ureas as cryptochrome modulators” (Reset Therapeutics, Inc., priority 2014, dated 2019).

Key:
[1] = tested on: core clock gene mRNAs in livers of ICR mice; assay: Four day study, liver clock gene mRNA by RT-qPCR, ICR mice; assay type: in vivo, mouse; settings: 50 mg/kg PO BID 4 days; for liver Per2 expression: ICR mice, ZT6
Experimental: Male ICR mice (weighing 30-35 g), obtained from Charles River Laboratories (Hollister, CA), were used for the experiment following at least 3 days of acclimation. Mice were dosed with vehicle (WFI or 10% Kolliphor) or compound (50 mg/kg, dose volume 5 mL/kg, PO) for 4 days BID (twice a day), beginning in the afternoon of the first day. The last dose of compound or vehicle was administered on the morning of harvest. On the day of harvest (6 hours following the final dose), mice were euthanized by CO2 asphyxiation and 50 mg of liver tissue was excised and placed in a tube containing 500 μl of RNA later.
E.Z.N.A.® HP Total RNA Isolation Kits (R6812-01 and the protocol described in the Manual, Revised 2010) were utilized to prepare and isolate RNA from the liver samples. To prepare the RNA samples, 10-30 mg of sample was removed from RNA-Later and placed in a 1.5 ml microfuge tube. GTC lysis buffer (700 μl) was added to the tissue, which was homogenized with a rotor-stator homogenizer (e.g. Tissue-Tearor, Model #985370 BioSpec Products with 4.5 mm probe, Cat. #985370-04), and then centrifuged at full speed (>13,000×g) for 5 minutes. The cleared supernatant was transferred by pipetting to a DNA Clearance Column Pre-inserted in a 2 mL Collection Tube. The assembled column was centrifuged at 13,000×g for 1 minute, and the flow-through was saved. An equal volume (700 μl) of 70% ethanol was added to the lysate and mixed. The sample was then applied to a HiBind RNA spin column placed into a 2 ml collection tube, which was centrifuged at 10,000×g for 60 seconds at room temperature. RNA Wash Buffer I (250 μl) was added by pipetting directly onto a new HiBind RNA column inserted in a 2 ml collection tube. The assembled column was centrifuged at 10,000×g for 60 seconds. The RNA column was placed into a new 2 ml collection tube. DNase I stock solution is pipetted (75 μl) directly onto the surface of the HiBind RNA resin in each column (Using DNAse Digestion with RNase Free DNase Set (E1091): for each HiBind RNA column, the DNase I stock solution was prepared as followed: E.Z.N.A.® DNase I Digestion Buffer 73.5μl, RNase Free DNase I (20 Kunitz/μl) 1.5 μl=Total Volume 75 μl.). The column with bound RNA was incubated at room temperature (25-30° C.) for 15 minutes. RNA Wash Buffer I (500 μl) was added to the column and placed on a bench top for 2 minutes. After centrifuging at 10,000×g for 60 seconds, discarding the flow-through, 500 μl of RNA Wash Buffer II was added and centrifuged at 10,000×g for 60 seconds. Another 500 μl of RNA Wash Buffer II was added and the column assembly was centrifuged at 10,000×g for 60 seconds. The column was centrifuged for 2 minutes at maximum speed to completely dry the HiBind matrix. The column was placed in a clean 1.5 ml microcentrifuge tube and 40-70 μl of molecular biology grade water is added. After sitting for 1 minute, the column was centrifuged for 2 minutes at maximum speed to elute the RNA. The isolated RNA was collected into the collection tube.
RediPlate 96 RiboGreen RNA Quantification Kit (Invitrogen) RediPlate standard curve was prepared by transferring 20 μl reconstituted RNA standard to a RediPlate well reconstituted in 180 μl RediPlate TE buffer. For liver RNAs prepared from 30-100 mg of tissue using a kit similar to the Omega Bio-Tek HP Total RNA Kit and eluted in RNAse-free water in a volume of 50 μl (microliters), 5 μl of the total RNA is diluted in 195 μl of RediPlate TE buffer (1:40 dilution of RNA), mix. After transferring 5 μl to RediPlate well reconstituted in 195 μl TE buffer and incubating 10 min. at RT, Fluorescence Intensity of wells with standards and samples were read in a Tecan M200 with Excitation set at 480 nm and Emission set at 520 nm with the gain set to −70%. Alternatively, one can use the FlexStation 3 with Ex 488 nm and Em 525 nm and a Cutoff of 515 nm.

[2] = tested on: stable U20S reporter cells harboring Per2-dLuc; assay: Per2 assay for evaluating the potency of test compounds (circadian luciferase reporter); assay type: cell-based; settings: amplitude of Per2-dLuc luminescence vs log concentration
Outline: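 U2OS Per2-dLuc cells grown 48 h at 37 °C, then synchronized with 5 μM forskolin plus 1 mM luciferin and dosed with 3-fold compound dilutions.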

[3] = tested on: cortisone-induced insulin resistance in Sprague Dawley rats; assay: Cortisone induced insulin resistance in rats; assay type: in vivo, rat; settings: cortisone 30 mg/kg sc + 30 mg/kg po
Experimental: Animals were dosed with cortisone (30 mg/kg sc qd) in combination with test compounds for 6 days and then terminated 27 hours after the final dose of cortisone. A reference standard (Mifepristone) was also included. Cortisone 21-acetate (Sigma C-3130) was supplied by RenaSci and administered using a dose volume of 5 ml/kg via the subcutaneous route as a fine suspension in 1% methylcellulose. […] Mifepristone (Sigma M8046) was provided by RenaSci.
Glucose and insulin determinations were performed on plasma samples obtained from a tail vein bleed taken after a 12 h fast, approximately 27 h after the last cortisone dose. Animals were then terminated and a terminal (cardiac) blood sample taken from which plasma was prepared.
Thirty four male Sprague Dawley rats (weight range 200-250 g) were ordered from Charles River, Margate, Kent, UK. […] Subsequently, animals underwent a 3 day baseline period during which they were dosed once daily with vehicle at t=0 h (07:00). […] Body weight was recorded immediately before dosing began at 07:00 (t=0 h).
On Day 6 of dosing rats were fasted for 12 h beginning at 22:30 (timed to coincide with the Day 7 termination). […] At 10:30 on Day 7, 27 h after the final dose of cortisone, a blood sample (300 μl) was taken from the lateral tail vein into tubes containing EDTA (Sarstedt 16.444). The blood was centrifuged and resultant plasma aliquot stored at −75° C. The animals were euthanized by CO2 asphyxiation followed by cervical dislocation. Terminal blood (approximately 10 ml) was collected by cardiac puncture into tubes containing EDTA (Sarstedt 5 ml 32.332) and then centrifuged and plasma stored at −75° C. The tail vein plasma was analyzed for glucose (n=2) using a commercial clinical reagent (Thermoelectron Infinity glucose reagent (TR15421) and for insulin (n=1) using the Mercodia ultrasensitive rat insulin rat ELISA (10-1251-10).
Plasma glucose and insulin were analyzed by robust regression or general linear model with treatment as a factor and bleeding order and baseline body weight as covariates. A log transformation was used if appropriate. Appropriate multiple comparison tests (two-tailed) were used to determine significant differences from the vehicle group and from the Cortisone group. P<0.05 was considered to be statistically significant.

C57/Bl6J DIO mice [4] = assay: Increasing dosages of Compound 72 for 7 days in diet-induced obesity mouse model; assay type: in vivo; settings: positive control 30 mg/kg QD PO 7 days
Source text: (§1) Male C57/Bl6J DIO mice were obtained from The Jackson Laboratory (Sacramento, Calif.). […] Animals were accustomed to these conditions for at least 2 weeks before experimentation and used at approximately 24 weeks of age.
(§2) Significance was accepted when p<0.05.
Male C57/Bl6J DIO mice were obtained from The Jackson Laboratory (Sacramento, Calif.). […] Animals were accustomed to these conditions for at least 2 weeks before experimentation and used at approximately 26 weeks of age.

[5] = tested on: db/db mouse model of type II diabetes; settings: db/db mice, positive control 30 mg/kg QD PO 7 days
Experimental: Male db/db mice homozygous for Lepr^db (6 weeks of age), were obtained from The Jackson Laboratory (Bar Harbor, Me.). Mice were group housed on a normal light/dark cycle (lights on: 07:00-19:00 h) with ad libitum access to a standard pelleted mouse diet and water. Animals were accustomed to these conditions for 2 weeks before experimentation. […] At 10:30 pm on the evening prior to endpoint measurement, mice were placed into clean cages and given free access to water, but not food for a period of 12 hours before the fasting blood glucose measurement. On the final day of the study, animals were dosed as normal, and then underwent a tail cut injury 2 hours prior to measurement of fasting blood glucose, to allow recovery from any stress the procedure might cause. Fasting blood glucose (FBG) was assessed from the animals at 10:30 am using an AlphaTRAK glucometer (Abbott Laboratories, USA). Following the FBG measurement blood was collected from each mouse, using a tail milking technique, into a capillary tube. Capillary tubes were centrifuged in a hematocrit (BD Triac 0200) and the resultant plasma transferred to an eppendorff. This sample, labelled as t=Ohr, was frozen at −80° C. to allow later measurement of insulin. At 11:30 am each animal was dosed with 0.5 g/kg of glucose, then blood glucose was measured at t=15, 30, 60, 90 and 120 minutes after glucose load. At the end of the OGTT blood was collected for a t=2 hr insulin determination as described above.
Fasting blood glucose values and glucose measurements taken during the OGTT were averaged and graphed (GraphPad Prism, GraphPad Software, La Jolla, Calif.). The area under the curve (AUC) was calculated for each individual animal. Plasma insulin levels were determined using an Ultrasensitive Insulin ELISA (ALPCO, Salem, N.H.). […] Insulin data was also represented in GraphPad Prism format. Statistical analysis was performed using one-way ANOVA followed by the appropriate post-test. Significance was accepted when p<0.05. Data are presented as mean and S.E.M.

C57/Bl6J DIO mice [6] = assay: 7 day dosing in diet-induced obesity (DIO) mouse model; assay type: in vivo
Source text: as §1, §2

For `O=C1C2CCC(C2)N1CC(O)Cn1c2ccc(F)cc2c2cc(F)ccc21` (stereo not shown) [Compound 48, 2-(3-(3,6-difluoro-9H-carbazol-9-yl)-2-hydroxypropyl)-2-azabicyclo[2.2.1]heptan-3-one], the Cry2 transcripts ([1]; ICR mice liver) was “decrease”, the “increase in Bmal1 mRNA at ZT6” value ([1]; ICR mice liver) was 8 fold and the “liver Per2 expression” value [1] was “suppression”. It also gave an EC50 [2] of 120 nM.

For `COC1CCCN(CC(O)Cn2c3ccc(F)cc3c3cc(F)ccc32)C1=O` (stereo not shown) [Compound 57, 1-(3-(3,6-difluoro-9H-carbazol-9-yl)-2-hydroxypropyl)-3-methoxypiperidin-2-one], the “increase in Bmal1 mRNA at ZT6” value ([1]; ICR mice liver) was at least 2 fold, the “liver Per2 expression” value [1] was “suppression” and the EC50 [2] was 329 nM.

With `CC#C[C@]1(O)CC[C@H]2[C@@H]3CCC4=CC(=O)CCC4=C3[C@@H](c3ccc(N(C)C)cc3)C[C@@]21C` [Mifepristone, mifepristone, reference compound] the HOMA-IR ([3]; insulin resistant rats) was 29.99+/−2.54 units, the fasted plasma insulin ([3]; rats) was 3.62 ± 0.29 ng/mL and the fasted plasma glucose ([3]; rats, unit printed as ng/mL) was 7.43 ± 0.27 ng/mL.

With `CN(CCOc1ccc(CC2SC(=O)NC2=O)cc1)c1ccccn1` (stereo not shown) [Rosiglitazone, reference compound] the fasting blood glucose (C57/Bl6J DIO mice [4]) was 161.1 ± 8.06 mg/dL, the HOMA-IR [5] was 50.58+/−3.52 units and the fasting blood glucose [5] was 280.4 ± 13.66 mg/dL. The “plasma insulin at t=0” value [5] was 3.05 ± 0.14 ng/mL, the “plasma insulin at t=2 hr” value [5] was 2.28 ± 0.08 ng/mL and the HOMA-IR (C57/Bl6J DIO mice [6]; 30 mg/kg PO 7 days) was 24.60+/−1.42 units. The “plasma insulin at t=0” value (C57/Bl6J DIO mice [6]; 30 mg/kg PO 7 days) was 2.70 ± 0.12 ng/mL, the “plasma insulin at t=2 hr” value (C57/Bl6J DIO mice [6]; 30 mg/kg PO 7 days) was 2.30 ± 0.06 ng/mL and the fasting blood glucose (C57/Bl6J DIO mice [6]; positive control 30 mg/kg PO 7 days) was 153.9 ± 5.05 mg/dL.
